Source: patent US8969325B2, “TRPV1 antagonists” (AbbVie Inc., priority 2011, dated 2015)
pIC50: −log10 of the molar value.

What was measured:
human TRPV1 [1] = target: T1, human TRPV1 (Homo sapiens (Human), UniProt Q8NER1); assay: Capsaicin Activation Assay (intracellular Ca2+, FLIPR); type: cell-based; details: recombinant HEK293 cells expressing hTRPV1, 50 nM capsaicin
Procedure, shortened: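 Ca2+ fluorescence was recorded by FLIPR every 1 to 5 seconds in HEK293 cells, clonally selected for stable human TRPV1 expression and plated one day ahead. Test compounds came as serial dilutions of 10 mM DMSO stocks.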

human TRPV1 [2] = target: T1, human TRPV1; assay: Acid Activation Assay (pH 5.0, intracellular Ca2+, FLIPR); type: cell-based; details: percentage of the maximal pH 5.0-induced response remaining; recombinant HEK293 hTRPV1 cells; maximum concentration tested 37.5 μM
Procedure, shortened: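 Readout: peak [Ca2+]i fluorescence over baseline on FLIPR, expressed as percentage remaining of the maximal pH 5.0-evoked signal. Stable hTRPV1-HEK293 cells with Calcium-4 dye received compound (12 half-log concentrations, maximum 37.5 μM) 3 min before acidic pH 5.0 buffer.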

T1 sequence (Q8NER1 whole entry): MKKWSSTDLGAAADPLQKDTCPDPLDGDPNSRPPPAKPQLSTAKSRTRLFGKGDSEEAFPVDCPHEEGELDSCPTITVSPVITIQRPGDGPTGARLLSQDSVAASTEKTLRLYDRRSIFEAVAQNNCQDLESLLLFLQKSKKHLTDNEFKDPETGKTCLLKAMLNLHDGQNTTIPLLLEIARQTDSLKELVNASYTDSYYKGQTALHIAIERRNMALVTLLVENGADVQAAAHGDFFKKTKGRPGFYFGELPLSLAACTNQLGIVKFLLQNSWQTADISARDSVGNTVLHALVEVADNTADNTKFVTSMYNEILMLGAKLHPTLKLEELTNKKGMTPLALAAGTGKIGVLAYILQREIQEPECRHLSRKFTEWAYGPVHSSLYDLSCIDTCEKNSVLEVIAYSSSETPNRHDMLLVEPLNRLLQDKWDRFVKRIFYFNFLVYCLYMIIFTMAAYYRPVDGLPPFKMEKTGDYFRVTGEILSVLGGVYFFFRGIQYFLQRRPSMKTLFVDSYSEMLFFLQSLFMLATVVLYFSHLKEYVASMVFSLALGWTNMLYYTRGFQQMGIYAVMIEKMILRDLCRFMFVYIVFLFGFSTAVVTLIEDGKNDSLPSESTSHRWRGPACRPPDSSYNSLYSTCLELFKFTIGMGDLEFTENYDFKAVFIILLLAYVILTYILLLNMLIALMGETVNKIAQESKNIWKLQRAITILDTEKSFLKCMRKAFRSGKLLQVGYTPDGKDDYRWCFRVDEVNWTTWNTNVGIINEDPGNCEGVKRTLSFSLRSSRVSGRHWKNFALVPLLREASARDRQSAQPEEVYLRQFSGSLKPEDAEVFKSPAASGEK

Structure (SMILES): O=C(Nc1ccc2c(c1)NC(=O)N(CCO)C2)N[C@@H]1CC(CF)(CF)Oc2cc(Cl)ccc21 [Example 316, 1-[(4R)-7-chloro-2,2-bis(fluoromethyl)-3,4-dihydro-2H-chromen-4-yl]-3-[3-(2-hydroxyethyl)-2-oxo-1,2,3,4-tetrahydroquinazolin-7-yl]urea]
- pIC50 (human TRPV1 [1]): 5.72
- human TRPV1 H^+ (max % remain) (human TRPV1 [2]): 20%

Structure (SMILES): CN1C(=O)NCc2c(NC(=O)N[C@@H]3CC(C)(C)Oc4c3ccc(F)c4Cl)cccc21 [Example 5, 1-[(4R)-8-chloro-7-fluoro-2,2-dimethyl-3,4-dihydro-2H-chromen-4-yl]-3-(1-methyl-2-oxo-1,2,3,4-tetrahydroquinazolin-5-yl)urea]
- pIC50 (human TRPV1 [1]): 7.77
- human TRPV1 H^+ (max % remain) (human TRPV1 [2]): 24%

Structure (SMILES): Cn1c(=O)ccc2c(NC(=O)N[C@@H]3CC(C)(C)Oc4c3cccc4C(F)(F)F)cccc21 [Example 93, 1-[(4R)-2,2-dimethyl-8-(trifluoromethyl)-3,4-dihydro-2H-chromen-4-yl]-3-(1-methyl-2-oxo-1,2-dihydroquinolin-5-yl)urea]
- pIC50 (human TRPV1 [1]): 7.41
- human TRPV1 H^+ (max % remain) (human TRPV1 [2]): 47%

Structure (SMILES): CCCC1(CCC)C[C@@H](NC(=O)Nc2ccc3c(c2)NC(=O)CC3)c2cc(F)ccc2O1 [Example 227, 1-[(4R)-6-fluoro-2,2-dipropyl-3,4-dihydro-2H-chromen-4-yl]-3-(2-oxo-1,2,3,4-tetrahydroquinolin-7-yl)urea]
- pIC50 (human TRPV1 [1]): 6.66
- human TRPV1 H^+ (max % remain) (human TRPV1 [2]): 19%

Structure (SMILES): CN1C(=O)CCc2ccc(NC(=O)N[C@@H]3CC(CF)(CF)Oc4cc(Cl)ccc43)cc21 [Example 255, 1-[(4R)-7-chloro-2,2-bis(fluoromethyl)-3,4-dihydro-2H-chromen-4-yl]-3-(1-methyl-2-oxo-1,2,3,4-tetrahydroquinolin-7-yl)urea]
- pIC50 (human TRPV1 [1]): 7.70
- human TRPV1 H^+ (max % remain) (human TRPV1 [2]): 5%

Structure (SMILES): Cn1c(=O)ccc2c(NC(=O)N[C@@H]3CCOc4cc(C(F)(F)F)ccc43)cccc21 [Example 64, 1-(1-methyl-2-oxo-1,2-dihydroquinolin-5-yl)-3-[(4R)-7-(trifluoromethyl)-3,4-dihydro-2H-chromen-4-yl]urea]
- pIC50 (human TRPV1 [1]): 7.85
- human TRPV1 H^+ (max % remain) (human TRPV1 [2]): 26%

Structure (SMILES): CCC1(CC)C[C@@H](NC(=O)Nc2ccc3c(c2)NC(=O)CC3)c2ccccc2O1 [Example 223, 1-[(4R)-2,2-diethyl-3,4-dihydro-2H-chromen-4-yl]-3-(2-oxo-1,2,3,4-tetrahydroquinolin-7-yl)urea]
- pIC50 (human TRPV1 [1]): 7.43
- human TRPV1 H^+ (max % remain) (human TRPV1 [2]): 44%

Structure (SMILES): CCC1(CC)C[C@@H](NC(=O)Nc2cccc3c2ccc(=O)n3C)c2ccc(Cl)cc2O1 [Example 70, 1-[(4R)-7-chloro-2,2-diethyl-3,4-dihydro-2H-chromen-4-yl]-3-(1-methyl-2-oxo-1,2-dihydroquinolin-5-yl)urea]
- pIC50 (human TRPV1 [1]): 7.54
- human TRPV1 H^+ (max % remain) (human TRPV1 [2]): 17%

Structure (SMILES): CN1C(=O)NCc2c(NC(=O)N[C@@H]3CCOc4cc(C(F)(F)F)ccc43)cccc21 [Example 160, 1-(1-methyl-2-oxo-1,2,3,4-tetrahydroquinazolin-5-yl)-3-[(4R)-7-(trifluoromethyl)-3,4-dihydro-2H-chromen-4-yl]urea]
- pIC50 (human TRPV1 [1]): 7.38
- human TRPV1 H^+ (max % remain) (human TRPV1 [2]): 23%

Structure (SMILES): O=C1COc2ccc(NC(=O)N[C@@H]3CC4(CCCC4)Oc4ccccc43)cc2N1 [Example 124, 1-[(4R)-3,4-dihydrospiro[chromene-2,1′-cyclopentan]-4-yl]-3-(3-oxo-3,4-dihydro-2H-1,4-benzoxazin-6-yl)urea]
- pIC50 (human TRPV1 [1]): 5.80
- human TRPV1 H^+ (max % remain) (human TRPV1 [2]): 97%

Structure (SMILES): CCC1(CC)C[C@@H](NC(=O)Nc2ccc3c(c2)N(C)C(=O)CC3)c2ccc(Cl)cc2O1 [Example 262, 1-[(4R)-7-chloro-2,2-diethyl-3,4-dihydro-2H-chromen-4-yl]-3-(1-methyl-2-oxo-1,2,3,4-tetrahydroquinolin-7-yl)urea]
- pIC50 (human TRPV1 [1]): 6.34
- human TRPV1 H^+ (max % remain) (human TRPV1 [2]): 37%

Structure (SMILES): COCCN(C)C1Cc2ccc(NC(=O)N[C@@H]3CC(C)(C)Oc4cc(F)ccc43)cc2NC1=O (stereo partly drawn) [Example 305, 1-[(4R)-7-fluoro-2,2-dimethyl-3,4-dihydro-2H-chromen-4-yl]-3-{3-[(2-methoxyethyl)(methyl)amino]-2-oxo-1,2,3,4-tetrahydroquinolin-7-yl}urea]
- pIC50 (human TRPV1 [1]): 5.70
- human TRPV1 H^+ (max % remain) (human TRPV1 [2]): 26%

Structure (SMILES): C[C@@]1(C(F)F)C[C@@H](NC(=O)Nc2ccc3c(c2)NC(=O)CC3)c2ccccc2O1 [Example 248, 1-[(2S,4R)-2-(difluoromethyl)-2-methyl-3,4-dihydro-2H-chromen-4-yl]-3-(2-oxo-1,2,3,4-tetrahydroquinolin-7-yl)urea]
- pIC50 (human TRPV1 [1]): 6.80
- human TRPV1 H^+ (max % remain) (human TRPV1 [2]): 24%

Structure (SMILES): CC1(C)C[C@@H](NC(=O)Nc2ccc3c(c2)NC(=O)N(CCO)C3)c2ccc(Cl)cc2O1 [Example 313, 1-[(4R)-7-chloro-2,2-dimethyl-3,4-dihydro-2H-chromen-4-yl]-3-[3-(2-hydroxyethyl)-2-oxo-1,2,3,4-tetrahydroquinazolin-7-yl]urea]
- pIC50 (human TRPV1 [1]): 7.12
- human TRPV1 H^+ (max % remain) (human TRPV1 [2]): 4%

Structure (SMILES): CCC1(CC)C[C@@H](NC(=O)Nc2ccc3c(c2)NC(=O)CO3)c2ccc(OC(F)(F)F)cc2O1 [Example 111, 1-[(4R)-2,2-diethyl-7-(trifluoromethoxy)-3,4-dihydro-2H-chromen-4-yl]-3-(3-oxo-3,4-dihydro-2H-1,4-benzoxazin-6-yl)urea]
- pIC50 (human TRPV1 [1]): 6.72
- human TRPV1 H^+ (max % remain) (human TRPV1 [2]): 71%

Structure (SMILES): CN1C(=O)CCc2ccc(NC(=O)N[C@@H]3CC(C)(C)Oc4c3ccc(Cl)c4F)cc21 [Example 294, 1-[(4R)-7-chloro-8-fluoro-2,2-dimethyl-3,4-dihydro-2H-chromen-4-yl]-3-(1-methyl-2-oxo-1,2,3,4-tetrahydroquinolin-7-yl)urea]
- pIC50 (human TRPV1 [1]): 6.92
- human TRPV1 H^+ (max % remain) (human TRPV1 [2]): 71%

Structure (SMILES): CN1C(=O)NCc2c(NC(=O)N[C@@H]3CCc4cc(C(C)(C)C)ccc43)cccc21 [Example 141, 1-[(1R)-5-tert-butyl-2,3-dihydro-1H-inden-1-yl]-3-(1-methyl-2-oxo-1,2,3,4-tetrahydroquinazolin-5-yl)urea]
- pIC50 (human TRPV1 [1]): 7.55
- human TRPV1 H^+ (max % remain) (human TRPV1 [2]): 8%

Structure (SMILES): CCC1(CC)C[C@@H](NC(=O)Nc2cccc3c2CNC(=O)N3C)c2cc(F)ccc2O1 [Example 155, 1-[(4R)-2,2-diethyl-6-fluoro-3,4-dihydro-2H-chromen-4-yl]-3-(1-methyl-2-oxo-1,2,3,4-tetrahydroquinazolin-5-yl)urea]
- pIC50 (human TRPV1 [1]): 7.80
- human TRPV1 H^+ (max % remain) (human TRPV1 [2]): 20%

Structure (SMILES): O=C1CCc2ccc(NC(=O)N[C@@H]3CC(CF)(CF)Oc4ccc(F)cc43)cc2N1 [Example 213, 1-[(4R)-6-fluoro-2,2-bis(fluoromethyl)-3,4-dihydro-2H-chromen-4-yl]-3-(2-oxo-1,2,3,4-tetrahydroquinolin-7-yl)urea]
- pIC50 (human TRPV1 [1]): 6.77
- human TRPV1 H^+ (max % remain) (human TRPV1 [2]): 42%

Structure (SMILES): O=C(Nc1ccc2c(c1)NC(=O)N(CCO)C2)N[C@@H]1CC(CF)(CF)Oc2ccc(F)cc21 [Example 49, 1-[(4R)-6-fluoro-2,2-bis(fluoromethyl)-3,4-dihydro-2H-chromen-4-yl]-3-[3-(2-hydroxyethyl)-2-oxo-1,2,3,4-tetrahydroquinazolin-7-yl]urea]
- pIC50 (human TRPV1 [1]): 5.21
- human TRPV1 H^+ (max % remain) (human TRPV1 [2]): 8%

Structure (SMILES): O=C1COc2ccc(NC(=O)N[C@@H]3CC4(CCC4)Oc4ccc(F)cc43)cc2N1 [Example 108, 1-[(4R)-6-fluoro-3,4-dihydrospiro[chromene-2,1′-cyclobutan]-4-yl]-3-(3-oxo-3,4-dihydro-2H-1,4-benzoxazin-6-yl)urea]
- pIC50 (human TRPV1 [1]): 6.62
- human TRPV1 H^+ (max % remain) (human TRPV1 [2]): 104%

Structure (SMILES): COCC1(COC)C[C@@H](NC(=O)Nc2cccc3c2ccc(=O)n3C)c2cc(F)ccc2O1 [Example 79, 1-[(4R)-6-fluoro-2,2-bis(methoxymethyl)-3,4-dihydro-2H-chromen-4-yl]-3-(1-methyl-2-oxo-1,2-dihydroquinolin-5-yl)urea]
- pIC50 (human TRPV1 [1]): 6.59
- human TRPV1 H^+ (max % remain) (human TRPV1 [2]): 46%

Structure (SMILES): Cn1c(=O)ccc2c(NC(=O)N[C@@H]3CC(C)(C)Oc4ccccc43)cccc21 [Example 77, 1-[(4R)-2,2-dimethyl-3,4-dihydro-2H-chromen-4-yl]-3-(1-methyl-2-oxo-1,2-dihydroquinolin-5-yl)urea]
- pIC50 (human TRPV1 [1]): 7.39
- human TRPV1 H^+ (max % remain) (human TRPV1 [2]): 58%

Structure (SMILES): Cn1c(=O)ccc2c(NC(=O)N[C@@H]3CC(C)(C)Oc4cc(Cl)ccc43)cccc21 [Example 23, 1-[(4R)-7-chloro-2,2-dimethyl-3,4-dihydro-2H-chromen-4-yl]-3-(1-methyl-2-oxo-1,2-dihydroquinolin-5-yl)urea]
- pIC50 (human TRPV1 [1]): 7.80
- human TRPV1 H^+ (max % remain) (human TRPV1 [2]): 50%

Structure (SMILES): O=C1CCc2ccc(NC(=O)N[C@@H]3CC4(CCC4)Oc4ccc(F)cc43)cc2N1 [Example 228, 1-[(4R)-6-fluoro-3,4-dihydrospiro[chromene-2,1′-cyclobutan]-4-yl]-3-(2-oxo-1,2,3,4-tetrahydroquinolin-7-yl)urea]
- pIC50 (human TRPV1 [1]): 6.92
- human TRPV1 H^+ (max % remain) (human TRPV1 [2]): 57%

Structure (SMILES): CN1Cc2ccc(NC(=O)N[C@@H]3CCOc4ccccc43)cc2NC1=O [Example 175, 1-[(4R)-3,4-dihydro-2H-chromen-4-yl]-3-(3-methyl-2-oxo-1,2,3,4-tetrahydroquinazolin-7-yl)urea]
- pIC50 (human TRPV1 [1]): 5.39
- human TRPV1 H^+ (max % remain) (human TRPV1 [2]): 62%

Structure (SMILES): CCC1(CC)C[C@@H](NC(=O)Nc2ccc3c(c2)NC(=O)CO3)c2cccc(F)c2O1 [Example 101, 1-[(4R)-2,2-diethyl-8-fluoro-3,4-dihydro-2H-chromen-4-yl]-3-(3-oxo-3,4-dihydro-2H-1,4-benzoxazin-6-yl)urea]
- pIC50 (human TRPV1 [1]): 7.02
- human TRPV1 H^+ (max % remain) (human TRPV1 [2]): 105%

Structure (SMILES): CN(CCO)C1Cc2ccc(NC(=O)N[C@@H]3CC(CF)(CF)Oc4cc(Cl)ccc43)cc2NC1=O (stereo partly drawn) [Example 304, 1-[(4R)-7-chloro-2,2-bis(fluoromethyl)-3,4-dihydro-2H-chromen-4-yl]-3-{3-[(2-hydroxyethyl)(methyl)amino]-2-oxo-1,2,3,4-tetrahydroquinolin-7-yl}urea]
- pIC50 (human TRPV1 [1]): 6.64
- human TRPV1 H^+ (max % remain) (human TRPV1 [2]): 0%
